From publication PMC6556873, “Rapid Covalent-Probe Discovery by Electrophile-Fragment Screening” (Journal of the American Chemical Society, 2019)
Like-named read-outs stand apart in the source and are kept apart here.

Legend:
in vitro [1] = test: in vitro; parameters: species or system HB2, HEK293; details: human, ccd841 cells
in vitro [2] = test: in vitro; parameters: species or system HB2, CCD841; details: human, hek293 cells
in vitro [3] = test: in vitro; parameters: species or system CCD841, HEK293; details: human, hb2 cells, read-out: HB-2 Cells Viability (%)
OTUB2 (OTUB2A) = target: T1, OTUB2 (OTUB2A) (Homo sapiens, UniProt Q96DC9); parameters: Intact protein LC/MS covalent labelling, fragments in pools of five, 200 uM each, 4 °C; details: 24 h, 4 °C, pool of five; 200 µM; covalent
T1 construct: full length residues 1-234, E. coli BL21(DE3)-R3, His tag removed by TEV, construct 27312 Da
T1 sequence (Q96DC9 1-234): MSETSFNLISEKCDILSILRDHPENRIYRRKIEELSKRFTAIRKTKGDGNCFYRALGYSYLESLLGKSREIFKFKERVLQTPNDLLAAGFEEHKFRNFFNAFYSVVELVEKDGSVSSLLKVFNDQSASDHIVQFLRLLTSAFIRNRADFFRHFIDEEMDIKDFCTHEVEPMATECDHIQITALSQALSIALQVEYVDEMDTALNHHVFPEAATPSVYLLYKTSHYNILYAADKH

NUDT7 = target: T2, NUDT7 (Homo sapiens, UniProt P0C024); parameters: Intact protein LC/MS covalent labelling, fragments in pools of five, 200 uM each, 4 °C; details: 24 h, 4 °C, pool of five; 200 µM; covalent
T2 construct: residues 14-235, E. coli, pNIC28-Bsa4, N-terminal His6 tag removed by TEV, construct 26672 Da
T2 sequence (P0C024 14-235): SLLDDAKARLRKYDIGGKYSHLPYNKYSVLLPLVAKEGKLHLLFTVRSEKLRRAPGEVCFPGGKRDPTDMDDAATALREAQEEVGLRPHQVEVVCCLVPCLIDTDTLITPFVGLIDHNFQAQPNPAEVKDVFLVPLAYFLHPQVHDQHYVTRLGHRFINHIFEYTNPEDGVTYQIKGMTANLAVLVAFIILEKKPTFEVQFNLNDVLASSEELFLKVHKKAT

BSA = target: T3, BSA (Bos taurus, UniProt P02769); parameters: Intact protein LC/MS covalent labelling, fragments in pools of five, 200 uM each, 4 °C; details: 24 h, 4 °C, pool of five; 200 µM; covalent
T3 construct: gene ALB
T3 sequence (P02769 whole entry, the tested form may be a part): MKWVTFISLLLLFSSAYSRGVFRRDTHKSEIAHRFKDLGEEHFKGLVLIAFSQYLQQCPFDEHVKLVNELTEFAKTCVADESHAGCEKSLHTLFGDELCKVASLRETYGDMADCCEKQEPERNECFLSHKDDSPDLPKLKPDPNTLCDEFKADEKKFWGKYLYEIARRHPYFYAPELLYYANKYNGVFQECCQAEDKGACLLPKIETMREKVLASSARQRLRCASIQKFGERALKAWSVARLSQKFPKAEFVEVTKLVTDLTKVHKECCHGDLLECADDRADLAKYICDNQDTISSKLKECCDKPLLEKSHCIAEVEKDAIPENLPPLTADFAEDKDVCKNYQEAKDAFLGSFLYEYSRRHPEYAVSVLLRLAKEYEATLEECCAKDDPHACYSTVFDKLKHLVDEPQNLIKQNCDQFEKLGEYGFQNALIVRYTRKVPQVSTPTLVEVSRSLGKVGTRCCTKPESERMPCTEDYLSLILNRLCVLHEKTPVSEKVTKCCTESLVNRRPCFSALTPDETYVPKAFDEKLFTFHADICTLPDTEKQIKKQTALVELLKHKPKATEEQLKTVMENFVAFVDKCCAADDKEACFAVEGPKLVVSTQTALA

PCAF = target: T4, PCAF (Homo sapiens, UniProt Q92831); parameters: Intact protein LC/MS covalent labelling, fragments in pools of five, 200 uM each, 4 °C; details: 24 h, 4 °C, pool of five; 200 µM; covalent
T4 construct: gene KAT2B
T4 sequence (Q92831 whole entry, the tested form may be a part): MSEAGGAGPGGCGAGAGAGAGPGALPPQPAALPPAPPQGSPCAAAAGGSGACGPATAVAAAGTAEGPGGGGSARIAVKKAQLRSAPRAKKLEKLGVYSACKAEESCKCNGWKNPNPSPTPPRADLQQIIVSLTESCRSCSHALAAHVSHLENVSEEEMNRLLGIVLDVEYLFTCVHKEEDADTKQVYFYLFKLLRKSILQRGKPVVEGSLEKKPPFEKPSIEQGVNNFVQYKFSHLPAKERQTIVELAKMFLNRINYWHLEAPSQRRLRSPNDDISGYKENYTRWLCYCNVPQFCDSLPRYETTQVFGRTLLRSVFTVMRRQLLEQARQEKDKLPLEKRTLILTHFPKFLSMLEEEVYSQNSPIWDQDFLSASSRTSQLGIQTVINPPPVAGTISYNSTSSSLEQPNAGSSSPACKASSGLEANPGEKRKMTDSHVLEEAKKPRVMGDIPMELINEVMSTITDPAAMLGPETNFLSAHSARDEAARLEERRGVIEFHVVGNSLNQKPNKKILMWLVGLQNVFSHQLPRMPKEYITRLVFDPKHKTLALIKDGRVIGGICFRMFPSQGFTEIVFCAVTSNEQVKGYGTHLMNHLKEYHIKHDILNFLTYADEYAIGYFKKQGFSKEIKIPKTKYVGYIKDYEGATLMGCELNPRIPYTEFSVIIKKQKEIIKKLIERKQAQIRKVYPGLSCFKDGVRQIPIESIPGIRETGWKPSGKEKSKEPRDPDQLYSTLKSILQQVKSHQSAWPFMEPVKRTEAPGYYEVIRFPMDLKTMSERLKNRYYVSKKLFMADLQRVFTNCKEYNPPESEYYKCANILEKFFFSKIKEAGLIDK

Row | Compound | OTUB2 (OTUB2 (OTUB2A)) | NUDT7 (NUDT7) | BSA (BSA) | PCAF (PCAF) | viability at 48 h, 10 µM (in vitro [1]) | viability at 48 h, 10 µM (in vitro [2]) | viability at 48 h, 10 µM (in vitro [3])
1 | CC1CCCC(NC(=O)NC(=O)CCl)C1C (centres unmarked) [PCM-0102332] | 0 | 0 | 0 | 0 | 71% | 52.5% | 48.7%
2 | Cc1cc(C)cc(NC(=O)CCl)c1 [PCM-0102394] | 0.22 | 0 | 0 | 0 | 69.9% | 22.3% | 31.4%
3 | O=C(CCl)Nc1cc(F)cc(F)c1 [PCM-0102874] | 0 | 0.18 | 0 | 0 | 58.3% | 3.1% | 14.3%
4 | Cc1ccc2nc(NC(=O)CCl)sc2c1 [PCM-0103031] | 0.18 | 0.88 | 0 | 0 | 74.9% | 79.2% | 70.6%
5 | O=C(CCl)N(CC(F)(F)F)c1ccc(Cl)cc1 [PCM-0102155] | 0 | 0.79 | 0 | 0 | 3.5% | 4.3% | 11.2%
6 | CC(C)(C)N(Cc1cccc(F)c1)C(=O)CCl [PCM-0102833] | 0 | 0 | 0 | 0 | 25.3% | 22.2% | 67.5%
7 | O=C(CCl)Nc1nc2ccc(F)cc2s1 [PCM-0102294] | 0 | 0.89 | 0 | 0 | 62.7% | 76.7% | 53%
8 | O=C(CCl)NCc1ccc(F)cc1C(F)(F)F [PCM-0102733] | 0.33 | 0.06 | 0 | 0 | 79.1% | 68.8% | 86.6%
9 | CC1CCc2c(sc(NC(=O)CCl)c2C#N)C1 (centres unmarked) [PCM-0102420] | 0 | 0.47 | 0 | 0 | 81.6% | 43.4% | 50.9%
10 | CC(C)(O)CNC(=O)CCl [PCM-0102554] | 0 | 0 | 0 | 0 | 99.5% | 93.2% | 103%
11 | O=C(CCl)NCC(=O)N1CCCC1 [PCM-0102391] | 0 | 0 | 0 | 0 | 101% | 116% | 106%
12 | C=CC(=O)NCc1snnc1C [PCM-0103079] | 0 | 0 | 0 | 0 | 102% | 97% | 104%
13 | CC(C)(C)OC(=O)CNC(=O)CCl [PCM-0102981] | 0 | 0 | 0.18 | 0 | 109% | 106% | 106%
14 | Cc1ccc(CN(C)C(=O)CCl)o1 [PCM-0102399] | 0 | 0.05 | 0 | 0 | 56.5% | 31.8% | 25.7%

Continued, in another order:

Row | OTUB2 (OTUB2 (OTUB2A)) | NUDT7 (NUDT7) | BSA (BSA) | PCAF (PCAF) | Compound | viability at 48 h, 10 µM (in vitro [1]) | viability at 48 h, 10 µM (in vitro [2]) | viability at 48 h, 10 µM (in vitro [3])
15 | 0.54 | 0 | 0 | 0 | O=C(CCl)Nc1ccc(N2CCOCC2)cc1 [PCM-0102582] | 79.5% | 57.2% | 74.9%
16 | 0 | 0 | 0 | 0 | C=CC(=O)N1CCOc2ccccc21 [PCM-0102629] | 86.1% | 71.1% | 80.9%
17 | 0.39 | 0 | 0 | 0 | O=C(CCl)NCC1COc2ccccc2O1 (centres unmarked) [PCM-0102881] | 76.2% | 56.3% | 81%
18 | 0.2 | 0 | 0 | 0 | C=CC(=O)N1CCC2(CCc3ccccc3O2)C1 (centres unmarked) [PCM-0103025] | 90.8% | 103% | 101%
19 | 0 | 0 | 0 | 0 | Cl.O=C(CCl)N1CCN(c2ccc(O)cc2)CC1 [PCM-0102357] | 76.7% | 12.7% | 31%
20 | 0.21 | 0.22 | 0 | 0 | Cl.O=C(CCl)N1CCN(c2cccc(Cl)c2)CC1 [PCM-0103032] | 71.1% | 58.5% | 12%
21 | 0 | 0 | 0.12 | 0 | C=CC(=O)N1CCC(S(=O)(=O)N2CCCC2)C1 (centres unmarked) [PCM-0102701] | 95.6% | 85.2% | 97.8%
22 | 0 | 0.12 | 0 | 0 | O=C(CCl)N1CCN(S(=O)(=O)c2ccc(F)c(Cl)c2)CC1 [PCM-0102343] | 14.3% | 2.6% | 1.4%
23 | 0 | 0.15 | 0 | 0 | COC(=O)c1ccccc1N(C)C(=O)CCl [PCM-0102589] | 89.7% | 58.9% | 92.1%
24 | 0 | 0.36 | 0 | 0 | O=C(CCl)N1CCCC1c1cccs1 (centres unmarked) [PCM-0102393] | 39% | 2.5% | 7.5%
25 | 0 | 0 | 0 | 0 | O=C(CCl)Nc1ccc2c(c1)C(=O)c1ccccc1C2=O [PCM-0102194] | 13.7% | 0.7% | 1.4%
26 | 0 | 0 | 0 | 0 | C=CC(=O)N1CCC(C(=O)N(C)c2ccccc2)C1 (centres unmarked) [PCM-0102771] | 106% | 72.2% | 100%
27 | 0 | 0 | 0 | 0 | CN(C(=O)CCl)C1=CCCC1 [PCM-0102869] | 110% | 101% | 111%
28 | 0.08 | 0 | 0.1 | 0 | C=CC(=O)N1Cc2c(OC)ccc(OC)c2C(O)C1 (centres unmarked) [PCM-0102680] | 135% | 119% | 104%
29 | 0 | 0 | 0 | 0 | O=C(CCl)N1CCN(S(=O)(=O)c2ccc3c(c2)CCC3)CC1 [PCM-0102193] | 20.9% | 2.8% | 2.7%
30 | 0.14 | 0 | 0 | 0 | CC(C)(C)c1cc(NC(=O)CCl)n(-c2ccccc2)n1 [PCM-0102536] | 65.2% | 10.6% | 33.5%
31 | 0.09 | 0 | 0 | 0 | C#Cc1cccc(NC(=O)CCl)c1 [PCM-0102735] | 85.7% | 87% | 90.9%
32 | 0 | 0 | 0 | 0 | C=CC(=O)N1CCn2c(cc3ccccc32)C1 [PCM-0102621] | 114% | 85.7% | 106%
